Measured values from publication PMC6010131, “Antileishmanial activity of sulphonamide nanoemulsions targeting the β-carbonic anhydrase from Leishmania species” (Journal of Enzyme Inhibition and Medicinal Chemistry, 2018).
Converted amounts (≈) assume the structure as drawn. Marks after values point to notes of the source that are not given here. One block for each compound: values may come before it.

Experiments:
[1] = tested on: L. amazonensis IFLA/BR/1967/PH8 promastigotes; assay: Antileishmanial microdilution assay (resazurin), promastigotes; assay type: cell-based, Leishmania amazonensis
Procedure: (§1) Leishmania (infantum MHOM/BR/1974/PP75 and L. amazonensis IFLA/BR/1967/PH8 were donated by the Leishmania Type Culture Collection (LTCC) of Oswaldo Cruz Institute/Fiocruz (Rio de Janeiro, Brazil). […] The antileishmanial activity of the sulphonamide NEs was evaluated by the microdilution technique. […] L. amazonensis and L. infantum promastigote forms were harvest at late log phase of growth (96 h), washed twice with PBS and resuspended in fresh culture medium to a final concentration of 5 × 10^6 parasites/ml. […] The minimal inhibitory concentration (MIC) was determined as the lowest concentration capable of inhibiting in vitro growth of the parasites. […] The selective index (SI) for promastigote forms of L. amazonensis and L. infantum was calculated by the ratio between the CC50 for RAW 264.7 macrophages and the IC50 for the parasites.

[2] = Haemolytic assay; assay type: cell-based, Human; settings: human, human erythrocytes (suspension in PBS), read-out: Haemolysis (%)
Procedure: (§2) Haemolytic activity was evaluated as described previously by Ishnava and Shah with a slight modification. Human erythrocytes from healthy individuals were collected in vacuum tubes containing EDTA as anti-coagulant. The erythrocytes were harvested by centrifugation for 10 m at 2500 rpm at 20 °C, and washed three times in PBS. To the pellet, PBS was added to yield a 10% (v/v) erythrocytes/PBS suspension. The 10% suspension was then diluted 1:10 in PBS. Aliquots of 100 µl of erythrocytes suspension was added, in triplicate, to 100 µl of a two-fold dilution series of sulphonamides NEs and amphotericin B (at concentrations of 128, 64, 32, 16, 8, 4, 2, and 1 µM, respectively, in the same buffer) in microtubes. Negative and positive controls were performed by replacing drug dilution with PBS or with 200 µl of […] for the total haemolysis, respectively. The tubes were incubated for 1 h at 37 °C and then centrifuged for 10 min at 2000 rpm at 20 °C. From the supernatant fluid, 150 µl was transferred to a flat-bottomed microtiter plate, and the absorbance was measured spectrophotometrically at 540 nm. Five concentrations are required for HC50 calculation. The following formula was used to find out the percentage of haemolytic activity: [A540 treated sample − A540 of buffer)/(A540 of Triton X-100 − A540 of buffer)] × 100.

[3] = tested on: Human erythrocytes; assay: Haemolytic assay; assay type: cell-based; settings: human erythrocytes, 1 h, 37 °C
Procedure: as §2

[4] = tested on: L. infantum MHOM/BR/1974/PP75 promastigotes; assay: Antileishmanial microdilution assay (resazurin), promastigotes; assay type: cell-based, Leishmania infantum
Procedure: as §1

[5] = tested on: L. donovani; set-up: method as in PMID 25825339; settings: against L. donovani; cited from earlier work
[6] = set-up: method as in PMID 25825339; settings: cited from earlier work
[7] = Cytotoxic assay (MTT); assay type: cell-based; settings: mouse, RAW 264.7 macrophages
Procedure: RAW 264.7 macrophages were obtained from the National Institute of Metrology, Quality and Technology (Inmetro, Rio de Janeiro, Brazil) and maintained in DMEM medium supplemented with 10% FBS at 37 °C in a 5% controlled CO2 atmosphere. Cell maintenance was performed every 48–72 h, time necessary for cells to achieve confluent monolayers.
Sulphonamide NEs cytotoxicity was performed using tetrazolium dye MTT colorimetric assay. RAW 264.7 macrophages were harvest after confluent monolayer achievement. The cells were washed twice with PBS and a cellular suspension of 10^6 cells/ml was prepared in fresh DMEM culture medium. Aliquots of 100 µl of the cellular suspension were placed into polystyrene 96-well plates, and then incubated at 37 °C in a 5% CO2 atmosphere for 6 h to allow for adherence of macrophages. After this period, the adherent cells were subjected to treatment with several concentrations of the sulphonamide NEs (1–128 µM), and then incubated for additional 48 h. […] Macrophage viability was determined after formazan crystals solubilisation with DMSO followed by the absorbance measurement at 570 nm using a SpectraMax M5 spectrophotometer (Molecular Devices, Los Angeles, CA). The 50% cytotoxic concentrations were calculated by regression analysis using Microsoft Excel 2013 software.

[8] = Dissolution of sulphonamides in clove oil; assay type: physicochemical; settings: concentration of 5 mg/ml
Procedure: The oil-in-water (O/W) NEs were prepared by high-energy method using an ultrasound processor (Hielscher model UP100H, Hielscher GmbH, Berlin, Germany), according to the method descripted by Senna et al.[31]. Oil phase was prepared by sulphonamides dissolution in the clove oil. An amount of 5 mg of drug was weighted in a microtube and 1 ml of clove oil was added. The tube was agitated for 1 min for obtaining of the drug solution (5 mg/ml). Aqueous phase was prepared by adding 1 g of Pluronic F127® in 8 g of water. Then 1 ml of oil phase (drug dissolved in clove oil) was added to 9 ml of aqueous phase (Pluronic F127 in water) under constant ultrasound homogenisation (amplitude 80%, continuous cycle no. 1) during 5 min in an ice bath at 5 °C to prevent heating of the dispersion. A transparent NE was obtained at a concentration of 500 µg/ml.
The NEs were produced with 10% of oil phase. NEs were prepared also without the drug in order to evaluate the stability, droplet size and PDI. […] Phase separation and precipitation of the drug were not observed, and the NE was considered stable in the concentration of up to 500 µg/ml.

[9] = Leishmania amazonensis, L. amazonensis promastigotes, 120 h
[10] = Leishmania infantum, L. infantum promastigotes, 120 h

SMILES: C[C@@H]1[C@H](O)[C@@H](C)/C=C/C=C/C=C/C=C/C=C/C=C/C=C/[C@H](O[C@@H]2O[C@H](C)[C@@H](O)[C@H](N)[C@@H]2O)C[C@@H]2O[C@](O)(C[C@@H](O)C[C@@H](O)[C@H](O)CC[C@@H](O)C[C@@H](O)CC(=O)O[C@H]1C)C[C@H](O)[C@H]2C(=O)O [AMP, amphotericin B]
IS50 (selectivity index = CC50/IC50) ([1]; CC50 RAW 264.7 / IC50 L. amazonensis): 1.78 ± 0.01^b
IC50 [1, 9]: 610 ± 10 nM
IC90 [1, 9]: 1230 ± 230 nM
MIC ([1]; Leishmania amazonensis, L. amazonensis promastigotes, 120 h, 26 °C, read-out: MIC (minimum inhibitory concentration)): 4 µM (≈ 3.7 µg/mL)
hemolysis at 1 h, 2 µM ([2]; 2 µM): 1.18 ± 0.31%
hemolysis at 1 h, 4 µM ([2]; 4 µM): 2.01 ± 0.02%
hemolysis at 1 h, 8 µM ([2]; 8 µM): 2.09 ± 0.15%
hemolysis at 1 h, 16 µM ([2]; 16 µM): 20.8 ± 0.5%
hemolysis at 1 h, 32 µM ([2]; 32 µM): 57.8 ± 6.7%
hemolysis at 1 h, 64 µM ([2]; 64 µM): 75.7 ± 5.24%
hemolysis at 1 h, 128 µM ([2]; 128 µM): 100%
hemolysis at 1 h, 256 µM ([2]; 256 µM): 100%
HC50 [3]: 27.93 ± 1.71^b µM
IS50 (selectivity index = CC50/IC50) ([4]; CC50 RAW 264.7 / IC50 L. infantum): 1.59 ± 0.01^d
IC50 [4, 10]: 670 ± 100 nM
IC90 [4, 10]: 1010 ± 30 nM
MIC ([4]; Leishmania infantum, L. infantum promastigotes, 120 h, 26 °C, read-out: MIC (minimum inhibitory concentration)): 4 µM (≈ 3.7 µg/mL)
IC50 [5]: 0.214 ± 0.06 µg/mL (≈ 0.232 µM)
haemotoxicity [6]: 69.8%
CC50 at 48 h [7]: 1070 ± 1490 nM

SMILES: NS(=O)(=O)c1ccc(NC(=O)Cc2ccc(Cl)cc2)c(F)c1 [Sulphonamide 3F]
Dissolution in clove oil [8]: easily dissolved

SMILES: NS(=O)(=O)c1ccc(NC(=O)Cc2ccccc2Br)c(F)c1 [Sulphonamide 3G]
Dissolution in clove oil [8]: easily dissolved

SMILES: NS(=O)(=O)c1ccc(CCNC(=O)Cc2ccccc2Br)cc1 [Sulphonamide 3W]
Dissolution in clove oil [8]: easily dissolved

SMILES: NS(=O)(=O)c1nnc(NC(=O)Cc2ccccc2Br)s1 [Sulphonamide 5C]
Dissolution in clove oil [8]: easily dissolved

Now from value to compound:

Dissolution in clove oil [8]: easily dissolved
SMILES: NS(=O)(=O)c1nnc(NC(=O)Cc2ccc(Cl)cc2)s1 [Sulphonamide 5B]

Dissolution in clove oil [8]: easily dissolved
SMILES: COc1ccc(CC(=O)Nc2nnc(S(N)(=O)=O)s2)cc1 [Sulphonamide 5D]
